From US9809623B2, “α4β7 peptide monomer and dimer antagonists” (Protagonist Therapeutics, Inc., priority 2014, dated 2017)
Numbered stars: 1 amine (or outer) side, 2 acyl side, 3 side chain; on linkers, the order of the positions; unused ones are H or OH. Bridge positions count the residues as written; N and C are the ends. Square brackets hold non-standard residues; d marks the D form. Peptide text beside a SMILES is read from it. I, II: the chains in the order shown. ξ: configuration not given here. Phe(4-tBu) = CC(C)(C)c1ccc(C[C@H](N)C(=O)O)cc1; Diglycolyl = O=C(COCC(=O)[*:2])[*:1]; NMeR = CN[C@@H](CCCNC(=N)N)C(=O)O; β3hE = N[C@@H](CCC(=O)O)CC(=O)O; Thr(3ξ) = CC(O)[C@H](N)C(=O)O; Pen = CC(C)(S)[C@H](N)C(=O)O

Key:
α4β7 receptor = assay: 7 day oral study, FACS receptor occupancy, α4β7 expression and circulating T cells; type: in vivo, cynomolgus monkey
Protocol: In certain embodiments for FACS analysis, heparinized whole blood from animals *e.g., cyanos) is stained with each of two panels of antibodies to evaluate (1) the extent of α4β7 receptor occupancy in samples treated with a peptide dimer compound or peptide monomer compound described herein; and (2) the abundance of circulating α4β7+, αEβ7+, and α4β7+αEβ7+ lymphocyte subsets. Receptor occupancy and integrin expression are assessed within memory CD4 T cells, naïve CD4 T cells, and B cells. To evaluate receptor occupancy, whole blood samples are first treated with 1 mM MnCl2 to allow peptide binding, and then pre-incubated+/−1 uM unlabeled peptide to fully occupy (i.e., block) the α4β7 receptor. Blocked and unblocked samples were stained with 1 nM Alexa 647-labeled peptide, followed by staining with antibodies against α4β7, CD45, CD4, CD45RA, and CD19. Samples are processed to lyse erythrocytes and fix leukocytes, followed by staining with a second-step reagent (streptavidin-BV421) and wash steps. To assess integrin expression and cell subset abundance, whole blood samples are stained with antibodies against α4, β7, and αE, in addition to antibodies against CD45, CD4, CD45RA, and CD19. Samples are processed to lyse erythrocytes and fix leukocytes, followed by staining with a second-step reagent (streptavidin-BV421) and wash steps. The stained samples are analyzed by flow cytometry, collecting a constant sample volume to allow calculation of absolute cell counts.
To further evaluate the in vivo properties of Peptide X in a higher species, cynomolgus monkeys were dosed with Peptide X for 7 days. Dosing was oral (nasogastric intubation) once daily. Whole blood (about 3.5 mL) was collected on Day 0 (prior to dosing) and Day 6 (1 hour post the last dose) for PK and PD analysis. On Day 6, blood was also collected from a non-dosed animal. For PD, FACS analysis was used to measure receptor occupancy, down-regulation of α4β7 expression and circulating levels of T cells expressing the integrin α4β7.
For FACS analysis, heparinized whole blood from the cynos was stained with each of two panels of antibodies to evaluate (1) the extent of α4β7 receptor occupancy in Peptide X-treated samples and (2) the abundance of circulating α4β7+, αEβ7+, and α4β7+αEβ7+ lymphocyte subsets. Receptor occupancy and integrin expression were assessed within memory CD4 T cells, naïve CD4 T cells, and B cells. To evaluate receptor occupancy, whole blood samples were first treated with 1 mM MnCl2 to allow Peptide X binding, and then pre-incubated+/−1 uM unlabeled Peptide X to fully occupy (i.e., block) the α4β7 receptor. […] All stained samples were analyzed by flow cytometry, collecting a constant sample volume to allow calculation of absolute cell counts.

[1] = system: C57BL/6 male mice, DSS colitis; type: in vivo
Protocol: Colitis was induced in C57BL/6 male mice (10 animals per group) by exposure to 3% DSS-treated drinking water from day 0 to day 5, when animals were shifted to normal drinking water. Once daily, animal deaths were recorded, and surviving animals were weighed and assessed visually for the presence of diarrhea and/or bloody stool. Immediately prior to sacrifice on day 9, colitis severity was assessed in all animals using video endoscopy, and the resulting images were scored for colitis severity by an observer blinded to group identity.
Starting on day 0, mice were given twice-daily oral doses of either a vehicle/sham control (Group 1) or Peptide X (Group 2: 10 mg/kg, PO, BID). On day 9, only the AM treatment dose was administered. Animals in Group 2 also were administered Peptide X in their drinking water at a concentration of 0.2 mg/mL. The drinking water bottle weights for Groups 1 and 2 were measured, and water consumption was used to estimate the peptide dose ingested via the drinking water. Based on daily water consumption, the average daily Peptide X dose from the combination of oral gavage and drinking water was estimated to be 49 mg/kg.
Mice were sacrificed on day 9, approximately four hours after the final of gavage dose administration. Spleen, Peyer's patches (PP), mesenteric lymph nodes (MLN), and blood were collected from each animal and processed for FACS analysis of α4 and β7 expression on TH memory cells. Takedown and FACS analysis occurred on the same day.
For PK measurements, colon sections from the proximal and distal colon were collected at ˜4 hours after the last AM dose and analyzed by mass spectrometry. Exposure in the proximal colon was approximately 3-fold higher than that in the distal colon (FIG. 12). The concentration of Peptide X in the blood was 84-fold and 31-fold lower compared to that in the proximal and distal colon, respectively. Nonetheless at this time point, the plasma concentration was ˜80-fold greater than the Peptide IC50 value for blocking α4β7 binding to MAdCAM.

[2] = system: C57BL/6 mice, DSS colitis; assay: Additional 9 day DSS colitis studies; type: in vivo, mouse
Protocol: In this 9 day DSS colitis study, C57BL/6 mice were treated with 3% DSS from Day 1 to Day 6, and switched to normal water until Day 10. Daily dosing was PO BID plus drinking water for Peptide X, and 25 mg/kg IP every 3 days for the anti-α4β7 antibody DATK32. PP and blood were collected and levels of α4β7+ memory T cells analyzed by FACS.

αLβ2 = αLβ2 (Homo sapiens, UniProt P05107+P20701); assay: IC50 for αLβ2 (assay not further described)
Chain of αLβ2 (P20701 26-1170): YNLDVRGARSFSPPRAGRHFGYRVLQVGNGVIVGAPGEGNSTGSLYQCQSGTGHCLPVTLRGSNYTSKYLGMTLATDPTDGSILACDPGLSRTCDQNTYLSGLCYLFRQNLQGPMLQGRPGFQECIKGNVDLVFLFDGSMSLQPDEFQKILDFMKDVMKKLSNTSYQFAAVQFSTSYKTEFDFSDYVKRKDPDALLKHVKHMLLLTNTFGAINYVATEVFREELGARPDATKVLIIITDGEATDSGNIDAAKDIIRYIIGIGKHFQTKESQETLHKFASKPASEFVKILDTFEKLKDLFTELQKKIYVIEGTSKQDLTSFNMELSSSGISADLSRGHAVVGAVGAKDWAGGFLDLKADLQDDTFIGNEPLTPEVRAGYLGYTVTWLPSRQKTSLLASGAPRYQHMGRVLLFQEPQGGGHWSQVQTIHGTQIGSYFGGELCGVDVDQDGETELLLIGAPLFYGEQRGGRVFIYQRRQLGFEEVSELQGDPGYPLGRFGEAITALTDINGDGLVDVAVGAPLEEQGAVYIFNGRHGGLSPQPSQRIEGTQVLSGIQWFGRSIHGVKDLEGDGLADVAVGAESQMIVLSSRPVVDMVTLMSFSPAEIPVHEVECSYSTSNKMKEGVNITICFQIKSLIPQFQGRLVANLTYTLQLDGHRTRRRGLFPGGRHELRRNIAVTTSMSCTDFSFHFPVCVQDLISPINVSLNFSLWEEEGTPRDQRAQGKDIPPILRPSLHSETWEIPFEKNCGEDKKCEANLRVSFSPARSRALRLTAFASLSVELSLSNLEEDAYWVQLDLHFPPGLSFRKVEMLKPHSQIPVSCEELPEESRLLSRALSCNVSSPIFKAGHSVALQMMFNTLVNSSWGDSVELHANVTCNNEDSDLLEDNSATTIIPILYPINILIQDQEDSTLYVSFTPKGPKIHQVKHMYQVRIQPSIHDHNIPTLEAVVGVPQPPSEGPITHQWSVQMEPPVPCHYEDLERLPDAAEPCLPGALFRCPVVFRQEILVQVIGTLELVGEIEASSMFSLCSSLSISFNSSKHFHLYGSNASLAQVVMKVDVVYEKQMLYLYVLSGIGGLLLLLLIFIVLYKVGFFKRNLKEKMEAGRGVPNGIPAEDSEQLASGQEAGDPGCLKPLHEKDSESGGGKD
Chain of αLβ2 (P05107 23-769): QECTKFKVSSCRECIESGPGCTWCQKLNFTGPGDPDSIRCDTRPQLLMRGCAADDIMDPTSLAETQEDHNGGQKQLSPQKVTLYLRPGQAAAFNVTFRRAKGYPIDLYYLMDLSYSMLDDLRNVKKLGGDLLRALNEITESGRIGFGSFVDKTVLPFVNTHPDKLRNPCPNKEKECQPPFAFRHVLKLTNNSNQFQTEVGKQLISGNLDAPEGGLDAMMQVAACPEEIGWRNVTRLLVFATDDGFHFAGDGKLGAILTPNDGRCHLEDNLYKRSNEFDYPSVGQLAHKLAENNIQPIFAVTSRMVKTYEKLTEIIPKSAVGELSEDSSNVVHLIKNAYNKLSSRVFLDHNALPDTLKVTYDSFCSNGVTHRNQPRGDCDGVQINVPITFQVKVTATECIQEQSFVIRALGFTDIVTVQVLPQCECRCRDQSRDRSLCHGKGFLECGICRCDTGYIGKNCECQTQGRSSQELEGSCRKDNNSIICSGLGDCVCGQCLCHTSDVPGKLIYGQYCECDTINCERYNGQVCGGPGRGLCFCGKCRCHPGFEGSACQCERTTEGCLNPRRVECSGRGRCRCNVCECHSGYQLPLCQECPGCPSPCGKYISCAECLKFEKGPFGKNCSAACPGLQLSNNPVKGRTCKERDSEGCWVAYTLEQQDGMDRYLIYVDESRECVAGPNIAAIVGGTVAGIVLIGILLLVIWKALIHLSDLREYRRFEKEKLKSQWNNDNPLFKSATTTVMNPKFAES
Protocol: Biochemical competition ELISA assays were performed for α4β7 and α4β1 integrins. The ELISA assay for α4β7 is based on binding of MAdCAM-1 to immobilized α4β7, whereas the α4β1 ELISA relies on binding of soluble α4β1 to immobilized VCAM-1. These assays are described in Example 2. Under 1 mM Mg^2+ binding conditions, the IC50 for Peptide X was 3 nM and >10,000 nM for α4β7 and α4β1, respectively. In addition, the IC50 for Peptide X was >100 uM for both α4β1 and αLβ2. The IC50 of Peptide X for α4β7 T cells was 1 nM.

[3] = 10 mg/kg PO BID plus 0.2 mg/mL in drinking water, day 9

CC(=O)N[C@@H]1C(=O)N(C)[C@@H](CCCNC(=N)N)C(=O)N[C@@H](CO)C(=O)N[C@@H](CC(=O)O)C(=O)N[C@@H](C(C)O)C(=O)N[C@@H](CC(C)C)C(=O)N[C@H](C(=O)N[C@@H](Cc2ccc(C(C)(C)C)cc2)C(=O)N[C@@H](CCC(=O)O)CC(=O)N[C@H](CCCCNC(=O)COCC(=O)NCCCC[C@@H](NC(=O)C[C@H](CCC(=O)O)NC(=O)[C@H](Cc2ccc(C(C)(C)C)cc2)NC(=O)[C@H]2NC(=O)[C@H](CC(C)C)NC(=O)[C@H](C(C)O)NC(=O)[C@H](CC(=O)O)NC(=O)[C@H](CO)NC(=O)[C@H](CCCNC(=N)N)N(C)C(=O)[C@@H](NC(C)=O)C(C)(C)SSC2(C)C)C(N)=O)C(N)=O)C(C)(C)SSC1(C)C (stereo partly drawn) [Peptide X, [Ac-Pen-(N-Me-Arg)-Ser-Asp-Thr-Leu-Pen-(Phe(4-tBu))-(β-homoGlu)-(D-Lys)]2-DIG] (I: Ac-[Pen][NMeR]SD[Thr(3ξ)]L[Pen][Phe(4-tBu)][β3hE][dK]-NH2 / II: Ac-[Pen][NMeR]SD[Thr(3ξ)]L[Pen][Phe(4-tBu)][β3hE][dK]-NH2; disulfide I:1-I:7, II:1-II:7; linker I:10-II:10 via Diglycolyl)
α4β7 expression on CD4 memory T cells (α4β7 receptor; all doses, Day 6 vs Day 0): decreased at all doses
EC50 (α4β7 receptor; by extrapolation, estimated, read-out: plasma concentration sufficient to occupy 50% of the α4β7 receptors in the blood): ~0.35 nM
percentage of α4β7+ memory T cells normalized to total CD4 cells (α4β7 receptor; cyno blood): increase
percent receptor occupancy in blood (α4β7 receptor; highest dose (75 mg/kg/day), oral once daily 7 days, CD4 memory α4β7+ T cells): exceeded 90%
endoscopy score (mean±SD) [1, 3]: 1.78±1.5
reduction of endoscopy scores vs vehicle [1, 3]: 32%
effect on weight loss, fluid intake, colon weight or length, presence of bloody stool and diarrhea ([1]; 10 mg/kg PO BID plus drinking water): no significant effect
visual assessment of endoscopy images ([1]; compared to the vehicle control): reduced colonic friability and improved mucosal healing
Exposure in the proximal colon higher than in the distal colon ([1]; mouse, in vivo): approximately 3 fold
decrease in percentage of α4β7+ memory cells relative to total cells in Peyer's Patches ([1]; vs vehicle, day 9): 55%
decrease in percentage of α4β7+ memory cells relative to total cells in the MLN ([1]; vs vehicle, day 9): 23%
increase in total α4β7 memory cells per mL blood ([1]; vs vehicle, day 9): 42%
increase in total α4β7 memory cells recovered from the spleen ([1]; vs vehicle, day 9): 73%
body weight loss and mucosal injury as assessed by endoscopy ([2]; DSS mice orally dosed daily for 9 days): dose-dependent reduction in body weight loss and mucosal injury
CD4+CD44highCD45RBlowβ7+ T cells in MLN, Peyer's Patches, spleen and blood ([2]; DSS mice orally dosed daily for 9 days, FACS): dose dependent reduction
α4β7+ T cells in gut lymphoid tissues and blood ([2]; PO BID plus drinking water): reduced α4β7+ T cells in gut lymphoid tissues and redirected them to blood
IC50 (αLβ2): > 100000 nM
